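Results reflect a 48-hour exposure of cells in 96-well plates to compound at five concentrations. At the GI50, growth is halved. TGI is the concentration that stops growth completely.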 Numbered stars: 1 amine (or outer) side, 2 acyl side, 3 side chain; on linkers, the order of the positions; unused ones are H or OH. Bridge positions count the residues as written; N and C are the ends. Square brackets hold non-standard residues; d marks the D form. Peptide text beside a SMILES is read from it. I, II: the chains in the order shown. Actinocin(1to9) = Cc1c2oc3c(C)ccc(C(=O)[*:2])c3nc-2c(C(=O)[*:1])c(N)c1=O; NMeY = CN[CH](Cc1ccc(O)cc1)C(=O)O; Sar = CNCC(=O)O
Experiments:
Test in all cases: NCI tumour cell line growth inhibition, 48 h
[1] = test system: MDA-N
[2] = test system: HOP-18 NSCLC
[3] = test system: XF 498 CNS
[4] = test system: RXF-631 renal
[5] = test system: DMS 114 small cell lung
[6] = test system: LXFL 529 NSCLC
[7] = test system: KM20L2 colon
[8] = test system: SNB-78 CNS
[9] = test system: M19-MEL melanoma

| SMILES | TGI [1] [µM] | GI50 [2] [µM] | TGI [2] [µM] | GI50 [3] [µM] | TGI [3] [µM] | GI50 [4] [µM] | TGI [4] [µM] | GI50 [5] [µM] | TGI [5] [µM] | GI50 [6] [µM] | TGI [6] [µM] | GI50 [7] [µM] | TGI [7] [µM] | GI50 [8] [µM] | TGI [8] [µM] | GI50 [9] [µM] | TGI [9] [µM] |
| --- | --- | --- | --- | --- | --- | --- | --- | --- | --- | --- | --- | --- | --- | --- | --- | --- | --- |
| COC(C)C(O)(C(=O)OCC1=CCN2CCC(O)C12)C(C)(C)O (stereo unspecified) | > 100 | – | – | – | – | – | – | – | – | – | – | – | – | – | – | – | – |
| C[CH2][Sn]([CH2]C)([O]C(=O)c1ccc(F)cc1)[O]C(=O)c1ccc(F)cc1 | – | 16.1 | 29.6 | 20.2 | 37.3 | 17.5 | 32.3 | 18.8 | 39.9 | 7.84 | 21.1 | 72.6 | > 100 | 20 | 37.9 | – | – |
| O=C(O)c1ccc(SSc2ccc(C(=O)O)cn2)nc1 | > 100 | – | – | – | – | – | – | – | – | – | – | – | – | – | – | – | – |
| CCC[CH2][Sn]1([CH2]CCC)[S]CC[N]1S(=O)(=O)c1ccc(C)cc1 | – | – | – | – | – | – | – | 0.659 | 2.09 | 0.33 | 1.12 | 2.27 | 4.46 | – | – | 1.32 | 3.03 |
| O/N=C/c1ccc(O)c(O)c1 | – | – | – | – | > 100 | – | – | – | > 100 | – | > 100 | – | > 100 | – | > 100 | – | > 100 |
| COC(=O)CC[C@]12C[C@]13CC[C@]1(C)C4C(C)C[C@]5(CC(C)C(=O)O5)OC4CC1(C)C3CCC2C(C)(C)O (stereo partly specified) | – | – | > 100 | – | 87.6 | – | – | – | > 100 | – | > 100 | – | > 100 | – | > 100 | – | > 100 |
| COc1cc2cnc3c4cc(OCc5ccccc5)ccc4ccc3c2cc1OC | – | – | > 100 | – | – | – | 98.8 | – | 80.4 | – | > 100 | – | > 100 | – | 65.4 | – | > 100 |
| C1=CCCC=CCC1.C[PH+](C)C.C[PH+](C)C.C[PH+](C)C.[Cl-].[Ir] | – | > 100 | > 100 | – | – | – | – | – | – | 17.3 | 62.2 | > 100 | > 100 | > 100 | > 100 | 39.8 | > 100 |
| C[C@@H]1CC[C@@]2(NC1)O[C@H]1C[C@H]3[C@@H]4CC[C@H]5C[C@@H](O)CC[C@]5(C)[C@H]4CC[C@]3(C)[C@H]1[C@@H]2C | > 100 | – | – | – | – | – | – | – | – | – | – | – | – | – | – | – | – |
| C=C1C(OC(C)=O)CC(OC(C)=O)C2(C)C(OC(C)=O)C(OC(C)=O)C3=C(C)C(OC(=O)/C=C/c4ccccc4)CC(C(OC(C)=O)C12)C3(C)C (stereo unspecified) | – | – | > 100 | – | – | – | > 100 | – | > 100 | – | > 100 | – | > 100 | – | > 100 | – | > 100 |
| CCC1=C(CC2NCCc3ccccc32)CC2c3cc(OC)c(OC)cc3CCN2C1 (stereo unspecified) | 8.25 | – | – | – | 13 | – | 4.44 | – | – | – | > 100 | – | 26.5 | – | 6.77 | – | 29.5 |
| CCOC(=O)CN1C(=O)c2cc([N+](=O)[O-])cc3cc([N+](=O)[O-])cc(c23)C1=O | > 100 | – | > 100 | – | > 100 | – | > 100 | – | > 100 | – | > 100 | – | > 100 | – | > 97.1 | – | > 100 |
| N#Cc1cccc(N2C(=O)C3C4C=CC(C3C2=O)C2C(=O)N(c3cccc(C#N)c3)C(=O)C42)c1 (stereo unspecified) | > 100 | – | > 100 | – | 36.2 | – | 42.9 | – | 42 | – | > 46.4 | – | > 100 | – | 33.7 | – | – |
| O=c1c2cc3ccccc3n2c(=O)c2cc3ccccc3n12 | – | – | > 100 | – | > 100 | – | – | – | > 100 | – | > 100 | – | > 100 | – | > 100 | – | > 100 |
| COC(=O)N/N=C(\C)CC(=O)Nc1ccc(Cl)cc1 | – | – | – | – | > 100 | – | > 100 | – | > 100 | – | > 100 | – | > 100 | – | > 100 | – | > 100 |
| CC1c2[nH]c3ccccc3c2CCN1O (stereo unspecified) | – | – | > 100 | – | – | – | > 100 | – | > 100 | – | > 100 | – | > 100 | – | > 100 | – | > 100 |
| NC(=O)c1ccc(Cl)c([N+](=O)[O-])c1 | – | – | > 100 | – | > 100 | – | – | – | > 100 | – | > 100 | – | > 100 | – | > 100 | – | > 100 |
| NC(Cc1ccccc1)c1nccs1 (stereo unspecified) | > 100 | – | – | – | – | – | – | – | – | – | – | – | – | – | – | – | – |
| COc1ccc(CC2C(=O)OC(C)C(NC(=O)c3c4nc5c(C(=O)NC6C(=O)NC(C(C)C)C(=O)N7CCCC7C(=O)N(C)CC(=O)N(C)C(Cc7ccc(OC)cc7)C(=O)OC6C)ccc(C)c5oc-4c(C)c(=O)c3N)C(=O)NC(C(C)C)C(=O)N3CCCC3C(=O)N(C)CC(=O)N2C)cc1 (stereo unspecified) (I: TVP[Sar][NMeY](Me) / II: TVP[Sar][NMeY](Me); ester I:1-I:C, II:1-II:C; linker I:N-II:N via Actinocin(1to9); configuration not given here) | 0.218 | – | – | – | – | – | – | – | – | – | – | – | – | – | – | – | – |
| CO[C@@]1(c2ccccc2)O[C@H]2OCCC2[C@H]1c1ccc(Cl)cc1 (stereo partly specified) | – | – | 99 | – | 69.3 | – | > 100 | – | > 100 | – | > 100 | – | > 100 | – | > 100 | – | – |
| C=C1C[C@@H]2C[C@@H](C)CC(O)[C@]2(CCCN)C1O (stereo partly specified) | – | – | > 100 | – | > 100 | – | > 100 | – | > 100 | – | > 100 | – | > 100 | – | > 100 | – | > 100 |
